What was measured:
[1] = test system: cancer pain model rats; experiment: Pain threshold in cancer pain model rats (MRMT-1 bone metastasis model, Dynamic Plantar Aesthesiometer); type: in vivo; conditions: for cancer pain threshold: single dose, day 11 after MRMT-1 transplantation, plantar surface of right hind paw, compared to control group (Dunnett's test, 1%); for pain threshold-time area under the curve (AUC): up to 24 hours after administration, compared to morphine 3 mg/kg subcutaneous
Procedure: Five-week-old female Crl:CD(SD) SPF rats (Charles River Japan) were injected with MRMT-1 cells (rat breast cancer cells) at 3 × 10^4 cells/20 µL/ body into the medullary cavity at the proximal end of the diaphysis of the right tibia to create a bone metastasis model (day 0). On day 10 after the transplantation of the cancer cells (day 10), the rats were divided into 4 groups of 8 rats each: a control group (with administration of distilled water (trade name: Otsuka Distilled Water) manufactured by Otsuka Pharmaceutical Factory, Inc.), a 10 mg/kg compound A administration group, a 30 mg/kg compound A administration group, and a morphine administration group, as shown in Table 1 below. On day 11 after the transplantation of the cancer cells (day 11), each drug was orally or subcutaneously administered to the rats at a dose of 2 mL/kg. The pain threshold (g) of the plantar surface of the right hind paw was measured using a Dynamic Plantar Aesthesiometer (37450, Ugo Basile) under blinded conditions 1, 3, 6, and 24 hours after the administration. The average value of the pain threshold-time area under the curve (AUC) (g·hr) for 24 hours post-administration was determined for each group.

[2] = test system: rats; experiment: Coordinated motor ability (rotarod); type: in vivo; conditions: 10 rotations/min, cutoff 180 seconds, compared to control group
Procedure: Five- to six-week-old male SD-SPF rats (Japan SLC, Inc.) were used in this experiment. The experimental schedule included training using a rotarod (SN445, Shinano Seisakusyo) for 3 days (6 times a day), starting from 3 days before the day of administration. On the day of administration, pre-values (time to stay on the rotarod before the administration of compound A or distilled water) were measured twice, and the rats that spent 180 seconds or more on the rotarod in either of the two measurements were selected. The rats were divided into 3 groups of 6 rats each: a control group (with administration of distilled water (trade name: Otsuka Distilled Water) manufactured by Otsuka Pharmaceutical Factory, Inc.), a 10 mg/kg compound A administration group, and a 30 mg/kg compound A administration group, as shown in Table 3 below. Compound A or distilled water was orally administered to the rats at a dose of 10 mL/kg, and the time to stay on the rotarod was measured 1, 3, 6, and 24 hours after the administration under the test conditions of 10 rotations/min with a cutoff of 180 seconds.

[3] = test system: mice; experiment: Spontaneous locomotor activity (Supermex); type: in vivo; conditions: measured for 30 minutes, 1 or 3 hours after administration, compared to control group
Procedure: Five- to six-week-old male ICR-SPF mice (Japan SLC, Inc.) were divided into 5 groups of 8 mice each: a control group (with administration of distilled water (trade name: Otsuka Distilled Water) manufactured by Otsuka Pharmaceutical Factory, Inc.), two 10 mg/kg compound A administration groups, and two 30 mg/kg compound A administration groups, as shown in Table 2 below. Compound A or distilled water at a dose of 10 mL/kg was orally administered to the mice. One or three hours after the administration of compound A or distilled water, the mice were transferred to a measurement cage, and spontaneous locomotor activity was measured for 30 minutes using Supermex (registered trademark) (Muromachi Kikai Co., Ltd.).

[4] = test system: rats; conditions: at a dose lower than that required to exert an analgesic effect; cited from earlier work

Row | SMILES | cancer pain threshold ([1]; 10 mg/kg oral) | pain threshold-time area under the curve (AUC) ([1]; 10 mg/kg oral) | cancer pain threshold ([1]; 30 mg/kg oral) | pain threshold-time area under the curve (AUC) ([1]; 30 mg/kg oral) | coordinated motor ability (time to stay on the rotarod) ([2]; 10 mg/kg oral, 1, 3, 6 and 24 hours after administration) | coordinated motor ability (time to stay on the rotarod) ([2]; 30 mg/kg oral, 1, 3, 6 and 24 hours after administration) | spontaneous locomotor activity (amount of activity) ([3]; 10 mg/kg oral) | spontaneous locomotor activity (amount of activity) ([3]; 30 mg/kg oral) | influences on the central nervous system (coordinated motor ability) [4]
1 | NC1CCN(c2cccc(Cl)n2)CC1 [compound A, 1-(6-chloropyridin-2-yl)piperidin-4-amine] | significantly increased | no statistically significant difference | significantly increased | no statistically significant difference | no significant changes in the coordinated motor ability | no significant changes in the coordinated motor ability | no significant changes in the amount of activity | no significant changes in the amount of activity | 
2 | CC(C)C[C@H](CN)CC(=O)O [pregabalin, Pregabalin] |  |  |  |  |  |  |  |  | inhibits coordinated motor ability
